{"source": "ChEMBL document CHEMBL5154723", "about": "(Bioorg Med Chem, 2022)"}
{"assay": "Inhibition of Influenza A virus H5N1 neuraminidase", "units": {"IC50": "nM"}}
{"compound": "O=C(CSc1nnc(-c2ccc(F)cc2)o1)NCc1ccc(Cl)c(Cl)c1", "IC50": 450}
{"compound": "COc1cccc(CCNC(=O)CSc2nnc(-c3ccccc3)o2)c1", "IC50": 260}
{"compound": "O=C(CSc1nnc(-c2ccccc2)o1)NCc1ccc(Cl)c(Cl)c1", "IC50": 130}
{"compound": "Cc1cc([N+](=O)[O-])ccc1NC(=O)CSc1nnc(COc2ccc3ccccc3c2)o1", "IC50": 6150}
{"compound": "Cc1ccc(-c2nnc(SCC(=O)NCc3ccc(Cl)c(Cl)c3)o2)cc1", "IC50": 2050}
{"compound": "O=C(CSc1nnc(-c2ccccc2)o1)NCCc1cccc(F)c1", "IC50": 3580}
{"compound": "COc1ccc(-c2nnc(SCC(=O)NCc3ccc(Cl)c(Cl)c3)o2)cc1", "IC50": 3950}
{"compound": "COc1cccc(CCNC(=O)CSc2nnc(-c3ccc(C)cc3)o2)c1", "IC50": 150000}
{"compound": "O=C(CSc1nnc(-c2ccc(O)cc2)o1)NCc1ccc(Cl)c(Cl)c1", "IC50": 1180}
{"compound": "O=C(CSc1nnc(-c2ccc(Cl)cc2)o1)NCc1ccc(Cl)c(Cl)c1", "IC50": 32}
{"compound": "O=C(CSc1nnc(-c2ccc(O)cc2)o1)NCCc1cccc(F)c1", "IC50": 27}
{"compound": "COc1cccc(CCNC(=O)CSc2nnc(-c3ccc(F)cc3)o2)c1", "IC50": 56700}
{"compound": "COc1cccc(CCNC(=O)CSc2nnc(-c3ccc(O)cc3)o2)c1", "IC50": 360}
{"compound": "CCC(CC)O[C@@H]1C=C(C(=O)O)C[C@H](N)[C@H]1NC(C)=O", "note": "[OSELTAMIVIR CARBOXYLATE]", "IC50": 82}
